Laboratory results taken from PMC5470982, “Thymoquinone exerts potent growth-suppressive activity on leukemia through DNA hypermethylation reversal in leukemia cells” (Oncotarget, 2017).

Target: T1, M. SssI (Spiroplasma monobiae, UniProt P15840)
T1 construct: gene sssIM
Test: in vitro DNA methylation assay with biotin/digoxigenin-labelled ds-oligonucleotide, HpaII cleavage and fluorescence readout
Format: biochemical

T1 sequence (P15840 whole entry, looked up): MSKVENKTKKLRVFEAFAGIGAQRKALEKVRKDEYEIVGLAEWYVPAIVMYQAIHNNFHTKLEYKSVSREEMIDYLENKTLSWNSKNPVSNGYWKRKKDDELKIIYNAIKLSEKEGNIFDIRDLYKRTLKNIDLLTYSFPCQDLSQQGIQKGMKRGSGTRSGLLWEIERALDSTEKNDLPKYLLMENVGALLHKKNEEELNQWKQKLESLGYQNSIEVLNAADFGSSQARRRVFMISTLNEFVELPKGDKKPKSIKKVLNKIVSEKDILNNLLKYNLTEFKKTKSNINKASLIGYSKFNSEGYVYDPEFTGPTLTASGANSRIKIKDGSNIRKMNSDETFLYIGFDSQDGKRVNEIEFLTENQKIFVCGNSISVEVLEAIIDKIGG

CC1=CC(=O)C(C(C)C)=CC1=O [TQ, thymoquinone] showed an IC50 of 30 nM.
